Patent US8790678B2, “Biomaterials having nanoscale layers and coatings” (Washington University, priority 2006, dated 2014)
Where “and” joins values, the source holds several entries; their conditions need not be identical. Identical values can stand only once.

Legend:
HUVEC [1] = assay: Scrape wound migration assay in platelet poor plasma or low serum medium; format: cell-based, human; conditions: for number of cells in the scrape wound versus plasma alone: no flow
Procedure: The plasma was passed through a 0.22 μm PVDF syringe filter. Plasma was aliquoted and stored at −20° C. VEGF concentration was measured with a sandwich ELISA kit (Quantikine Human VEGF kit, R&D Systems, Minneapolis, Minn.). The concentration of VEGF was measured in plasma samples from three different donors.
After rinsing with D-PBS, LSM or plasma containing the appropriate stimulants were added to the cells. […] Cells were manually counted using ImagePro Express software (Media Cybernetics, Silver Spring, Md.).
A 2.54 cm diameter Teflon disk was mounted onto the spindle of each motor so that the bottom of the disk was 0.5 cm above the cell monolayer. A total volume of 6 mL of medium was added per well. The motors were driven using a 1.5 V power source resulting in a rotation rate of 150±5 rad/s. […] Cell densities were counted at four locations, each between 0.8 and 1.2 cm away from the center of the well.

S1P1 mRNA = assay: Quantitative real time RT-PCR of S1P1 mRNA; format: cell-based, human; conditions: 10 ng/mL VEGF; HUVEC cultured in plasma; 24 h
Text: Quantitative Real Time Reverse Transcription PCR-In experiments with fluid flow, cell lysates were harvested only in the region of relevant shear stress (0.8-1.2 cm from the center of the well). For conditions without fluid flow, cell lysates were collected from the entire well. Total cell RNA was isolated using an RNeasy kit (Qiagen). Amplification of an 81-bp fragment of S1P1 using primers (5'-[…] NO:7] and 5'-[…] Inc, Coralville, Iowa) and probe (S1P1 Probe: [NT] ID NO:9], IDT Inc) was performed using the Quantitect qRT-PCR kit (Qiagen). The amount of S1P1 or β-Actin RNA was quantified by comparing data to a standard curve generated using the Taqman human endogenous β-actin control kit (Applied Biosystems). The β-actin control kit contains 333 copies of β-actin DNA per ng of total RNA. Knockdown of S1P1 with siRNA-Passage 3 HUVEC at 30-50% confluence were transfected with 100 nM siRNA targeting S1P1 (Silencer validated siRNA against S1P1, Ambion, Austin, Tex.) in antibiotic-free growth medium using Lipofectamine-2000 (Invitrogen). […] At 48 h, cells were incubated with LSM for 12 h. A negative control (Ambion, Silencer Negative Control #2) was used to test for non-specific effects on gene expression or cell survival. Quantitative real-time RT-PCR was used to determine the extent of S1P1 receptor mRNA knockdown 48 h after transfection.

plasma lipoproteins = conditions: in blood; cited from earlier work
S1P1 = S1P1 (Homo sapiens, UniProt P21453); conditions: Lee et al., Science (1998); read-out: KD for S1P/S1P1 binding; cited from earlier work
Sequence of S1P1 (P21453 whole entry, species assumed): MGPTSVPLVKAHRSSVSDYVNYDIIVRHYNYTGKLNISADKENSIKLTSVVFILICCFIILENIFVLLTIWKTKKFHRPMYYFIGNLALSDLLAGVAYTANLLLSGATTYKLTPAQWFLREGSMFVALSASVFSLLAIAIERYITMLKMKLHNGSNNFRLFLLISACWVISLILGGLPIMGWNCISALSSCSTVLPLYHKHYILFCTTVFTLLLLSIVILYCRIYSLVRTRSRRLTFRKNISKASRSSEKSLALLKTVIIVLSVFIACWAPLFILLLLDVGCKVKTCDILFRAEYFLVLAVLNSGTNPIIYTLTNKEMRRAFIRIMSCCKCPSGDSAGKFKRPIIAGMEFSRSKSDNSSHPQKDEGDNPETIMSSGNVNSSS

[2] = tested on: Human aortic endothelial cells; assay: Single cell tracking on RGD/PEG-OVS/albumin hydrogels under fluid shear stress; format: cell-based; conditions: for endothelial cell migration speed: 100 nM S1P
Procedure: Human aortic endothelial cells seeded onto RGD/PEG-OVS/albumin hydrogels at 1000-2000 cells/cm^2 were tracked under 20 dynes/cm^2 fluid shear stress in HEPES-buffered low serum medium (HEPES-LSM; MCDB 131 with 0.1% FBS, 1% ABAM, […] HEPES, pH 7.4) containing 0.4% FAF-BSA for 12 h.
Time lapse microscopy images were obtained every 2 min for 12 h of endothelial cell migration on the surface of RGD containing PEG hydrogels. The percent of cells remaining on the gels during the course of the experiment was recorded for each RGD concentration. The projected cell areas of all cells were determined by manually outlining the cells after 3 h under 20 dyne/cm^2 shear stress. Single endothelial cells were manually tracked for 12 h to obtain XY-coordinate data for the center of each cell. Coordinate data from every six minutes (Δt=6 min) for all cells in each experiment were saved as variables for analysis in MATLAB (The MathWorks, Natick, Mass.). At each time point i, ti=iΔt, the mean squared displacement was calculated using the overlapping interval method. The speed of each individual was calculated by dividing the root mean-square displacement for a single time interval by the tracking interval (6 min). Each cell's persistence time was determined by fitting the persistent random walk model given by Equation 1: <d^2(t)>=2S^2P[t−P(1−e^−t/P)] [1] using the calculated speed by nonlinear least squares regression analysis as previously described (Dunn 1983; Othmer, Dunbar and Alt 1988; Harms et al. 2005). Speed simply represents the total path length of a cell over time. Persistence time represents the time period between changes in the direction of movement of more than 60°. Path length is calculated as the product of speed and persistence time. Cell dispersion is the product of speed squared and persistence time. Cell areas were obtained by manually tracing cells. All data was analyzed by ANOVA Scheffe post hoc. Endothelial Response to Linear RGD Concentration—Cell Attachment Strength

HUVEC [3] = assay: Time-lapse microscopy of endothelial cell migration on PEG-OVS/albumin/RGD hydrogels; format: cell-based, human
Procedure: Time-lapse microscopy was used to quantify endothelial cell migration speeds on PEGOVS/albumin hydrogels containing RGD peptide and preloaded with S1P. RGD peptide was added to the PEG hydrogels to promote endothelial cell adhesion and spreading on the materials. PEG-OVS (3.4 mg in 20 μL) was reacted for 30 min with acetyl-GCGYGRGDSPG-NH2 peptide [SEQ ID NO. 5], to attach the peptide to 1/20 of the vinyl sulfone groups (2.78 mM RGD peptide in the final hydrogel). The PEG hydrogels were crosslinked by reacting PEG-OVS with albumin (5.2 mg in 30 μL) premixed with S1P (5 nmol) to give a final concentration of 100 μM S1P within the crosslinked hydrogel. The resulting solution (50 μL) was pipetted into a 24-well plate and incubated at 37° C. for 24 h to allow crosslinking. HUVEC from passage 5-7 were seeded onto the gels at a concentration of 1000 cells/cm^2. After allowing the cells to spread for 6 h in complete growth medium, HEPES-buffered low serum medium (MCDB 131 with 0.1% FBS, 1% ABAM, […] HEPES, pH 7.4) containing 0.4% FAF-BSA was added to the cells. The cells were tracked using time-lapse microscopy for 12 h, recording images every two minutes. Individual cell migration speeds were analyzed manually using ImageJ to trace the path of each cell over time. […]

[4] = tested on: chorioallantoic membrane (CAM); assay: Chick chorioallantoic membrane (CAM) angiogenesis assay; format: in vivo, chicken; conditions: 50 ng spotted on Thermanox coverslip, two days
Procedure: Embryonated chicken eggs were incubated blunt-end up in a 37° C. incubator. At embryonal day 6, the top of the egg was cracked and removed using tweezers to create a 1.5 cm diameter opening. The inner shell membrane was removed, exposing the CAM. A 20 μL PEG hydrogel was then placed onto the CAM. As controls, 50 ng bFGF or 50 ng S1P were spotted onto small pieces of Thermanox coverslips (Nunc), air dried and placed onto the CAM. The eggs were sealed with parafilm and returned to the incubator. After two days of incubation, the eggs were reopened and the degree of angiogenesis was visually assessed.

HAEC = assay: Individual cell migration of HAEC in plasma; format: cell-based, human
Procedure: Individual Cell Migration of HAEC—Passage 6 HAEC were subcultured and incubated in growth medium for 3 days and then were serum-starved for 12 h. HAEC cell densities were less than 100 cell/mm^2 so that cell-cell contacts were unlikely during the duration of the experiment. Any cell that contacted another cell was excluded from data analysis. Plasma was buffered with 20 mM HEPES, pH 7.4, and added to the well. Time-lapse microscopy was used to track the cells every 4 min for 12 h with a 10× objective. The migration speed of individual cells was analyzed using ImageJ software (NIH).

[5] = S1P 100 nM or VEGF 10 ng/mL added to plasma
[6] = S1P at 0.69 mM cyclic RGD vs 0.52 and 1.38 mM cyclic RGD without S1P
[7] = addition of 100 nM S1P, linear RGD

VEGF
number of cells in the scrape wound versus plasma alone (HUVEC [1]; [5]): no differences
S1P1 mRNA concentration versus plasma alone (S1P1 mRNA): statistically significant increase

CCCCCCCCCCCCC/C=C/[C@@H](O)[C@@H](N)COP(=O)(O)O [S1P, Sphingosine 1-phosphate]
circulating S1P bound by HDL (plasma lipoproteins): about 55%
circulating S1P bound by other lipoproteins (plasma lipoproteins): about 10%
cell densities outside the scrape wound area between S1P levels (HUVEC [1]; 0, 200, 500, and 1000 nM exogenous S1P at each time point): no significant differences
number of endothelial cells in a scrape wound versus LSM alone (HUVEC [1]; 100 nM S1P in LSM, 24 h): increased the number of endothelial cells
number of cells in the scrape wound (HUVEC [1]; 100 nM S1P in plasma, fluid flow): did not significantly increase
number of cells in the scrape wound versus plasma alone (HUVEC [1]; 200 nM and 500 nM exogenous S1P, plasma, 24 h): statistically different from plasma alone
migration into the wound area versus plasma alone (HUVEC [1]; 200 nM exogenous S1P, fluid flow, 48 h): significantly different from plasma alone
number of cells in the scrape wound versus plasma alone (HUVEC [1]; 200 nM exogenous S1P, plasma, 48 h): significantly higher than plasma alone
cell density outside the scrape wound at 48 h versus 0 and 24 h (HUVEC [1]; 1000 nM exogenous S1P in static culture): significantly lower cell density
number of cells in the wound area versus plasma alone (HUVEC [1]; 200, 500, or 1000 nM S1P in plasma, fluid flow, 24 h): significant increases
number of cells in the scrape wound versus plasma alone (HUVEC [1]; [5]): no differences
exogenous S1P concentration with the highest number of cells within the scrape wound (HUVEC [1]; plasma, without fluid flow, 100, 200, 500, 1000 nM tested): 200 nM
Kd (S1P1): ~8 nM and 8 nM
persistence time ([2]; 100 nM S1P compared to no S1P, cyclic RGD): not significantly changed
endothelial cell migration speed ([2]; cyclic RGD hydrogels, particularly higher concentrations): significant increase in endothelial cell migration speed
endothelial cell migration speed ([2]; highest linear RGD concentrations): more than doubled
projected cell area ([2]; S1P addition, cyclic RGD, after 3 h of shear stress): No clear effect
cell dispersion [2, 6]: statistically greater
path length [2, 6]: statistically greater
cell dispersion [2, 7]: not significant
path length [2, 7]: not significant
persistence time [2, 7]: not clearly affected
mean migration speed of HUVEC (HUVEC [3]; S1P delivered from preloaded PEG/albumin/RGD hydrogel (100 μM S1P in gel), without S1P 19.2±10.1): 43.8±15.7 μm/h
mean migration speed of HUVEC (HUVEC [3]; culture medium containing 100 nM S1P, on PEG/albumin/RGD hydrogel): 30.2±11.8 μm/h
angiogenic response [4]: strong angiogenic responses
mean cell speed versus plasma alone (HAEC; 100 nM S1P added to static plasma): no difference
mean cell speed versus plasma alone (HAEC; 500 and 1000 nM exogenous S1P): did not lead to a significant increase
mean cell speed versus plasma alone (HAEC; S1P in plasma increased by 200 nM, p=0.023): significantly increased
